Assay results reported in article PMC3919579, “Timing of GTP binding and hydrolysis by translation termination factor RF3” (Nucleic Acids Research, 2013).

Target: T1, RF3 (Escherichia coli, UniProt P0A7I4)
T1 construct: gene prfC; free RF3, N-terminal His-tag, pET30a, BL21(DE3), Ni-NTA and Resource Q
Assay: competition titration against mantGDP, FRET
Type: binding
Settings: pH 7.5, 37 °C, 7 mM MgCl2; competition with purified RF3-mantGDP

T1 sequence (P0A7I4 2-529): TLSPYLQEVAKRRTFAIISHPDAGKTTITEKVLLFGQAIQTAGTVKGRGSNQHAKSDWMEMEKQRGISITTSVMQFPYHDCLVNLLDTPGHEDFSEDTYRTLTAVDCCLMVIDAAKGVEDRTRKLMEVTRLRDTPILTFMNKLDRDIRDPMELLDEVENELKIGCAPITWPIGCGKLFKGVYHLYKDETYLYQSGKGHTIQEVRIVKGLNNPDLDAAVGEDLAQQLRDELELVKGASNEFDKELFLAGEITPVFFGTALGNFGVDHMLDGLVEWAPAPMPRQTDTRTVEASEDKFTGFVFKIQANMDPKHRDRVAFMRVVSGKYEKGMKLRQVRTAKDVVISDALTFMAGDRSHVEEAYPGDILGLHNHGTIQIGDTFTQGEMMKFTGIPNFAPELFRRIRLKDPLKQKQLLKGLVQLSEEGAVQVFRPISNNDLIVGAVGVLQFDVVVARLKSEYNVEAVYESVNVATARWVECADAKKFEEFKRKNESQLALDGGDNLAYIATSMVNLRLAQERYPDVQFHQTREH

ratio of added nucleotide to mantGDP at half-saturation	SMILES
60 fold	Nc1nc2c(ncn2[C@@H]2O[C@H](COP(=O)(O)OP(=O)(O)CP(=O)(O)O)[C@@H](O)[C@H]2O)c(=O)[nH]1 [GDPCP]
40 fold	Nc1nc2c(ncn2[C@@H]2O[C@H](COP(=O)(O)OP(=O)(O)NP(=O)(O)O)[C@@H](O)[C@H]2O)c(=O)[nH]1 [GDPNP]
1 fold	Nc1nc2c(ncn2[C@@H]2O[C@H](COP(=O)(O)OP(=O)(O)O)[C@@H](O)[C@H]2O)c(=O)[nH]1 [GDP]
3 fold	Nc1nc2c(ncn2[C@@H]2O[C@H](COP(=O)(O)OP(=O)(O)OP(=O)(O)O)[C@@H](O)[C@H]2O)c(=O)[nH]1 [GTP]
